Measurements as given in publication PMC9940851, “Seleno Containing Compounds as Potent and Selective Antifungal Agents” (ACS Infectious Diseases, 2022).
≈ marks a conversion by molar mass, not a printed value.

Key:
MpaCA = target: T1, MpaCA (Malassezia pachydermatis, UniProt A0A0M8MPA4); test: stopped-flow CO2 hydrase assay; assay type: biochemical
T1 construct: gene Malapachy_3798
T1 sequence (A0A0M8MPA4 1-242): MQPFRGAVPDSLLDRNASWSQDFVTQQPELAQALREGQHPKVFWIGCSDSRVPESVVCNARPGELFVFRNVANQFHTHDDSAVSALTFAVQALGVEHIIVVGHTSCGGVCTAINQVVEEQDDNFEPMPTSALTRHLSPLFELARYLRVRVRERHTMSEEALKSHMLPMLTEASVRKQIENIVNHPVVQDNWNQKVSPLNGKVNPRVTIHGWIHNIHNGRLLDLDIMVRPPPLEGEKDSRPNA

MgCA [1] = target: T2, MgCA (Malassezia globosa, UniProt A8Q1N3); test: biochemical; set-up: stopped-flow CO2 hydration assay, phenol red absorbance at 557 nm, 15 min preincubation, Cheng-Prusoff KI
T2 construct: gene MGL_1814
T2 sequence (A8Q1N3 1-241): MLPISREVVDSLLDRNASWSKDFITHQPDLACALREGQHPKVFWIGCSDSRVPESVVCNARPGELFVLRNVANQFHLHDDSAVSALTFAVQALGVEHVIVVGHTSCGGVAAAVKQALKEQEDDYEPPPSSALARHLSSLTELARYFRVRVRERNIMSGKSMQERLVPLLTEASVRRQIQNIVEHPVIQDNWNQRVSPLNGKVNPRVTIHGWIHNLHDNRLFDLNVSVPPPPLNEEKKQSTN
Protocol: Enzyme concentrations ranged between 5 and 12 nM. […] The presence of the sulfonamide moiety (i.e., either primary/secondary) within our scaffolds prompted us to investigate whether the compounds listed in this study were endowed with modulation features against the enzymatic metalloenzyme carbonic anhydrases (CAs, EC 4.2.1.1) expressed in Malassezia spp. of interest such as M. pachydermatis (MpaCA), M. globosa (MgCA), and M. restricta (MreCA). […] The obtained activities in Table 3 were all reported as KI values.

[2] = system: T3, M. pachydermatis DSMZ 6172; test: microbe, parasite or virus in culture; set-up: broth microdilution MIC, M. pachydermatis and Candida, 35 °C; conditions: Malassezia pachydermatis, DSMZ6172
T3 construct: DSMZ 6172 (CDC 16334)
Protocol: (§1) Inoculum preparations for antifungal assays were performed following the CLSI guidelines for antifungal susceptibility testing of yeasts.[31] Antifungal activity was evaluated on unicellular yeasts Candida albicans ATCC 10231, Candida glabrata ATCC 90030 (DSMZ 11226), Malassezia pachydermatis CDC 16334 (DSMZ 6172), Malassezia globosa ATCC MYA 4612, and Malassezia furfur ATCC 14521. All the fungal strains were stored at −80 °C in cryovials. Then Candida spp. and Malassezia pachydermatis were reactivated in RPMI 1640 broth for 24–48 h at 35 °C. The so obtained fresh cultures were streaked onto Sabouraud dextrose agar and incubated for 24–48 h at 35 °C. Malassezia globosa and furfur were reactivated in modified RPMI 1640 broth[32] for 24–48 h at 35 °C (M. furfur) and 33 °C (M. globosa), and then the cultures were streaked onto Leeming and Notman agar (MLNA) and incubated for 48–72 h at 35 °C for M. furfur and at 33 °C for M. globosa. The fungal inoculum for the testing was prepared by suspending in phosphate buffer (PB) 10 mM pH 7 4–5 colonies of about 1 mm diameter. The fungal suspension was then adjusted to a final optical density of 0.5 McFarland standard (1–5 × 10^6 cells/mL). The compound solutions were tested in a range of concentrations from 0.01 μg/mL to 256 μg/mL, and 50 μL were then added in 96 wells microtiter plates with 50 μL of fungal inoculum and incubated for 24–48 h at 35 °C. Growth and sterility controls were performed. […] Compounds 3a, 3c, 5b, 7a–d, 9c, 11e, 11i, and 14a,b were selected as representatives of the chemical moieties synthesized prior to their screen on yeasts of biomedical relevance such as M. pachydermatis DSMZ 6172, C. albicans ATCC 10231, and C. glabrata ATCC 90030 (DSMZ 11226) strains. The clinical used drugs Ketoconazole, SeS2, and Amphotericin B were included as references (Table 1).

M. globosa ATCC MYA 4612 = system: T4, M. globosa ATCC MYA 4612; test: microbe, parasite or virus in culture; conditions: Malassezia globosa
T4 construct: ATCC MYA 4612
Protocol: as §1

ATCC M. furfur 14521 = system: T5, ATCC M. furfur 14521; test: microbe, parasite or virus in culture; conditions: Malassezia furfur
T5 construct: ATCC 14521
Protocol: as §1

C. albicans = test: microbe, parasite or virus in culture; set-up: broth microdilution MIC, M. pachydermatis and Candida, 35 °C; conditions: Candida albicans
Protocol: as §1

C. glabrata DSMZ 11226 = system: T6, C. glabrata DSMZ 11226; test: microbe, parasite or virus in culture; set-up: broth microdilution MIC, M. pachydermatis and Candida, 35 °C; conditions: Nakaseomyces glabratus, DSMZ11226
T6 construct: DSMZ 11226 (ATCC 90030)
Protocol: as §1

MgCA [3] = target: T2, MgCA; test: stopped-flow CO2 hydrase assay; assay type: biochemical
Outline: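 Stopped-flow recording over 10–100 s followed CO2 hydration (1.7–17 mM CO2) in 20 mM Hepes pH 7.4 plus 20 mM Na2SO4, using 0.2 mM phenol red at 557 nm, after recombinant carbonic anhydrase (5–12 nM) had been preincubated with inhibitor for 15 min at room temperature. Initial rates, corrected for uncatalysed rates, came from at least six traces, and at least three determinations were averaged. Ki was calculated by nonlinear least-squares fitting with the Cheng-Prusoff equation.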

SMILES	Ki (MpaCA)	Ki (MgCA [1])	MIC [2]	MIC (M. globosa ATCC MYA 4612)	MIC (ATCC M. furfur 14521)	MIC (C. albicans)	MIC (C. glabrata DSMZ 11226)	Ki (MgCA [3])
O=C(Nc1ccccc1)Nc1ccccc1F [14c]	> 10 µM	> 10 µM	> 256 mg/L	> 256 mg/L	> 256 mg/L	–	–	–
NS(=O)(=O)c1ccc(C[Se]c2ccc(NC(=[Se])NC(=O)c3cc(Br)cc(OC(F)(F)F)c3)cc2)cc1 [compound 12, 3-Bromo-N-((4-((4-sulfamoylbenzyl)selanyl)phenyl)carbamoselenoyl)-5-(trifluoromethoxy)benzamide]	71.6 µM	1.76 µM	6.7 ± 2.3 mg/L (≈ 9.38 µM)	256 mg/L (≈ 358 µM)	128 mg/L (≈ 179 µM)	–	–	–
NS(=O)(=O)c1ccc(O)c(NC(=[Se])NC(=O)c2cc(Br)cc(OC(F)(F)F)c2)c1 [11i]	12.7 µM	6.25 µM	0.5 mg/L (≈ 0.891 µM)	64 mg/L (≈ 114 µM)	5 ± 2.45 mg/L (≈ 8.91 µM)	64 mg/L (≈ 114 µM)	32 mg/L (≈ 57 µM)	–
O=C(NC(=[Se])Nc1ccccc1)c1cc(Br)cc(OC(F)(F)F)c1 [16b]	> 10 µM	> 10 µM	1 mg/L (≈ 2.15 µM)	341 ± 148 mg/L (≈ 732 µM)	10.7 ± 4.62 mg/L (≈ 23 µM)	–	–	–
NS(=O)(=O)c1ccc(NC(=S)Nc2ccccc2F)cc1 [14b]	0.488 µM	5.49 µM	> 256 mg/L	> 256 mg/L	> 256 mg/L	> 256 mg/L	> 256 mg/L	–
Fc1ccccc1NC(=S)Nc1ccccc1 [14d]	> 10 µM	> 10 µM	> 256 mg/L	> 256 mg/L	128 mg/L (≈ 520 µM)	–	–	–
O=C(NC(=[Se])Nc1c(F)c(F)cc(F)c1F)c1ccccc1 [16d]	> 10 µM	> 10 µM	1 mg/L (≈ 2.67 µM)	> 256 mg/L	2.7 ± 1.15 mg/L (≈ 7.2 µM)	–	–	–
O=C(NC(=[Se])Nc1ccccc1)c1ccccc1 [16a]	> 10 µM	> 10 µM	0.8 ± 0.29 mg/L (≈ 2.64 µM)	29.3 ± 18.7 mg/L (≈ 96.6 µM)	0.8 ± 0.6 mg/L (≈ 2.64 µM)	–	–	–
NS(=O)(=O)c1ccc(NC(=O)Nc2ccccc2F)cc1 [14a]	0.845 µM	6.74 µM	> 256 mg/L	> 256 mg/L	> 256 mg/L	> 256 mg/L	> 256 mg/L	–
NS(=O)(=O)c1ccc(NC(=[Se])NC(=O)c2cc(Br)cc(OC(F)(F)F)c2)cc1 [7c]	83.5 µM	–	0.5 mg/L (≈ 0.917 µM)	128 mg/L (≈ 235 µM)	4 mg/L (≈ 7.34 µM)	64 mg/L (≈ 117 µM)	8 mg/L (≈ 14.7 µM)	4.3 µM
Cc1cccc(C(=O)NC(=[Se])Nc2cc(S(N)(=O)=O)ccc2O)c1 [11j]	14.8 µM	5.64 µM	0.5 mg/L (≈ 1.21 µM)	128 mg/L (≈ 310 µM)	16 ± 8.76 mg/L (≈ 38.8 µM)	–	–	–
O=C(NC(=[Se])Nc1ccccc1F)c1ccccc1 [16c]	> 10 µM	> 10 µM	1 mg/L (≈ 3.11 µM)	64 mg/L (≈ 199 µM)	2 mg/L (≈ 6.23 µM)	–	–	–
